Reference: ChEMBL document CHEMBL3045109, “Inhibitory effect of bionic fungicide 2-allylphenol on Botrytis cinerea (Pers. ex Fr.) in vitro” (Pest Manag Sci, 2009)
Values after ≈ are worked out from the molar mass of the structure shown. Active and inactive are the calls of the source. No cut-off for these calls is given here.

How the values were obtained:
[1] = test system: Botrytis cinerea; experiment: Inhibition of respiratory activity in Botryotinia fuckeliana mycelium assessed as decrease in rate of oxygen consumption at 2 mM by Clark-type oxygen electrode recording analysis in presence of glucose (reference value: 0%); assay type: functional
[2] = test system: Botrytis cinerea; experiment: Inhibition of respiratory activity in Botryotinia fuckeliana mycelium assessed as decrease in rate of oxygen consumption at 2 mM by Clark-type oxygen electrode recording analysis in presence of succinate (reference value: 0%); assay type: functional
[3] = test system: Botrytis cinerea; experiment: Depletion of total adenylate pool in Botryotinia fuckeliana mycelium at 80 mg/L after 24 to 48 hr by reverse phase HPLC analysis; assay type: functional, organism-based
[4] = test system: Botrytis cinerea; experiment: Depletion of ATP content in Botryotinia fuckeliana mycelium at 80 mg/L after 6 hr by reverse phase HPLC analysis; assay type: functional
[5] = test system: Botrytis cinerea; experiment: Depletion of ATP content in Botryotinia fuckeliana mycelium at 80 mg/L after 24 to 48 hr by reverse phase HPLC analysis; assay type: functional, organism-based
[6] = test system: Botrytis cinerea; experiment: Inhibition of respiratory activity in Botryotinia fuckeliana mycelium assessed as rate of oxygen consumption at 100 mg/L by Clark-type oxygen electrode recording analysis in presence of glucose and 2 mM mitochondrial alternative oxidase inhibitor, SHAM; assay type: functional
[7] = test system: Botrytis cinerea; experiment: Fungicidal activity against Botryotinia fuckeliana grown in liquid medium assessed as inhibition of mycelial growth after 24 hr; assay type: functional, organism-based
[8] = test system: Botrytis cinerea; experiment: Induction of respiratory activity in Botryotinia fuckeliana mycelium assessed as rate of oxygen consumption at 10 mg/L after 2 min by Clark-type oxygen electrode recording analysis; assay type: functional
[9] = test system: Botrytis cinerea; experiment: Fungistatic activity against Botryotinia fuckeliana grown in liquid medium assessed as increase in mycelium dry weight at 80 mg/L incubated for 24 hr prior to transferring mycelium to drug-free MYS medium measured after 12 hr; assay type: functional
[10] = test system: Botrytis cinerea; experiment: Inhibition of respiratory activity in Botryotinia fuckeliana mycelium assessed as decrease in rate of oxygen consumption at 100 mg/L by Clark-type oxygen electrode recording analysis in presence of succinate (reference value: 0%); assay type: functional
[11] = test system: Botrytis cinerea; experiment: Inhibition of respiratory activity in Botryotinia fuckeliana mycelium assessed as rate of oxygen consumption at 100 mg/L by Clark-type oxygen electrode recording analysis in presence of succinate and 2 mM mitochondrial alternative oxidase inhibitor, SHAM; assay type: functional
[12] = test system: Botrytis cinerea; experiment: Fungicidal activity against Botryotinia fuckeliana grown on YGA medium assessed as inhibition of mycelial growth incubated for 4 days in the dark at 25 degC in presence of non-fermentable carbon source, glycerol; assay type: functional, organism-based; details: 96 h
[13] = test system: Botrytis cinerea; experiment: Fungicidal activity against Botryotinia fuckeliana grown on PDA medium assessed as inhibition of mycelial growth incubated for 4 to 7 days at 25 degC in presence of 10 mg/L mitochondrial alternative oxidase inhibitor, SHAM; assay type: functional, organism-based
[14] = test system: Botrytis cinerea; experiment: Inhibition of respiratory activity in Botryotinia fuckeliana mycelium assessed as rate of oxygen consumption at 100 mg/L after 2 min by Clark-type oxygen electrode recording analysis; assay type: functional
[15] = test system: Botrytis cinerea; experiment: Inhibition of respiratory activity in Botryotinia fuckeliana mycelium assessed as decrease in rate of oxygen consumption at 100 mg/L by Clark-type oxygen electrode recording analysis in presence of glucose (reference value: 0%); assay type: functional
[16] = test system: Botrytis cinerea; experiment: Fungicidal activity against Botryotinia fuckeliana grown on YgA medium assessed as inhibition of mycelial growth incubated for 4 days in the dark at 25 degC in presence of fermentable carbon source, glucose; assay type: functional, organism-based; details: 96 h
[17] = test system: Botrytis cinerea; experiment: Fungistatic activity against Botryotinia fuckeliana grown in liquid medium assessed as increase in mycelium dry weight at 80 mg/L incubated for 24 hr prior to transferring mycelium to drug-free MYS medium measured after 6 hr; assay type: functional
[18] = test system: Botrytis cinerea; experiment: Fungicidal activity against Botryotinia fuckeliana grown in liquid medium assessed as inhibition of mycelial growth at 80 mg/L after 12 hr; assay type: functional, organism-based
[19] = test system: Botrytis cinerea; experiment: Inhibition of respiratory activity in Botryotinia fuckeliana mycelium assessed as decrease in rate of oxygen consumption at 20 uM by Clark-type oxygen electrode recording analysis in presence of glucose and 2 mM mitochondrial alternative oxidase inhibitor, SHAM (reference value: 0%); assay type: functional
[20] = test system: Botrytis cinerea; experiment: Inhibition of respiratory activity in Botryotinia fuckeliana mycelium assessed as decrease in rate of oxygen consumption at 20 uM by Clark-type oxygen electrode recording analysis in presence of glucose (reference value: 0%); assay type: functional
[21] = test system: Botrytis cinerea; experiment: Inhibition of respiratory activity in Botryotinia fuckeliana mycelium assessed as decrease in rate of oxygen consumption at 20 uM by Clark-type oxygen electrode recording analysis in presence of succinate and 2 mM mitochondrial alternative oxidase inhibitor, SHAM (reference value: 0%); assay type: functional
[22] = test system: Botrytis cinerea; experiment: Inhibition of respiratory activity in Botryotinia fuckeliana mycelium assessed as decrease in rate of oxygen consumption at 20 uM by Clark-type oxygen electrode recording analysis in presence of succinate (reference value: 0%); assay type: functional

For `O=C(NO)c1ccccc1O` [SALICYLHYDROXAMIC ACID], the inhibition at 2000 µM [1] was 45% and the inhibition at 2000 µM [2] was 32%.

With `C=CCc1ccccc1O` [2-ALLYLPHENOL] the inhibition [3] was “Active”, the inhibition at 80 µg/mL [4] was 70% and the inhibition [5] was “Active”. For the same compound, the “inhibition (INH)” value [6] was 100%, the EC50 [7] was 25.4 µg/mL (≈ 189 µM) and the Activity [8] was 30%. For the same compound, the “fold change (FC)” value [9] was 1.7, the inhibition at 100 µg/mL [10] was 48% and the “inhibition (INH)” value [11] was 100%. The EC50 [12] was 7.1 µg/mL, the “growth inhibition (GI)” value [13] was “Active” and the inhibition at 100 µg/mL [14] was 60%. For the same compound, the inhibition at 100 µg/mL [15] was 46%, the EC50 [16] was 22.9 µg/mL and the “fold change (FC)” value [17] was 0.9. For the same compound, the inhibition [18] was “Active”.

For `CCCCCC[C@H]1C(=O)O[C@H](C)[C@H](NC(=O)c2cccc(NC=O)c2O)C(=O)O[C@@H](C)[C@@H]1OC(=O)CC(C)C` [ANTIMYCIN A], the “inhibition (INH)” value [19] was 100%, the inhibition at 20 µM [20] was 77% and the “inhibition (INH)” value [21] was 100%. It also gave an inhibition at 20 µM [22] of 55%.
